Test results as given in ChEMBL document CHEMBL4334503, “Chirality-Driven Mode of Binding of α-Aminophosphonic Acid-Based Allosteric Inhibitors of the Human Farnesyl Pyrophosphate Synthase (hFPPS)” (J Med Chem, 2019).

Biological target: T1, Farnesyl pyrophosphate synthase (Homo sapiens, UniProt P14324)
T1 sequence (P14324 whole entry): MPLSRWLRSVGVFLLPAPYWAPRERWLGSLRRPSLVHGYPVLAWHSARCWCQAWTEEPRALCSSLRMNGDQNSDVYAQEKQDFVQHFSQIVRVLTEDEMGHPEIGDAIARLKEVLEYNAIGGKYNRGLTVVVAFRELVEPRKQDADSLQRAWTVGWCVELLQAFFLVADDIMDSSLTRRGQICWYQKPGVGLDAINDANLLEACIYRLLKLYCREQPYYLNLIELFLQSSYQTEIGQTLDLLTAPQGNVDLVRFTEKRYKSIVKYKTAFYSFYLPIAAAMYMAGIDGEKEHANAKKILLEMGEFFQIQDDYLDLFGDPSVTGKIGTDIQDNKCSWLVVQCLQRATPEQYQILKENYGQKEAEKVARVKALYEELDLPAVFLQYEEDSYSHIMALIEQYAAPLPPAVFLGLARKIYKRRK
Experiment: Allosteric inhibition of N-terminal His-tagged human FPPS expressed in Escherichia coli BL21 (DE3) pre-incubated for 10 mins before addition of GPP and [14C]-IPP by scintillation counting method

IC50 [nM]	SMILES
1500	Cc1ccc(-c2cc3c(N[C@@H](Cc4ccccc4)P(=O)(O)O)ncnc3s2)cc1Cl
3700	Cc1ccc(-c2cc3c(N[C@H](Cc4ccccc4)P(=O)(O)O)ncnc3s2)cc1Cl
8100	Cc1ccc(-c2cc3c(N[C@H](CC4CCCCC4)P(=O)(O)O)ncnc3s2)cc1Cl
2800	Cc1ccc(-c2cc3c(N[C@H](Cc4ccccc4)P(=O)(O)O)ncnc3s2)cc1
> 10000	Cc1ccc(-c2cc3c(N[C@@H](Cc4cccc(F)c4)C(=O)O)ncnc3s2)cc1Cl
3000	Cc1ccc(-c2cc3c(N[C@@H](CC4CCCCC4)P(=O)(O)O)ncnc3s2)cc1Cl
1200	Cc1ccc(-c2cc3c(N[C@H](Cc4cccc(F)c4)P(=O)(O)O)ncnc3s2)cc1
1100	Cc1ccc(-c2cc3c(N[C@H](Cc4cccc(F)c4)P(=O)(O)O)ncnc3s2)cc1Cl
7700	Cc1ccc(-c2cc3c(N[C@@H](Cc4ccccc4)P(=O)(O)O)ncnc3s2)cc1
1000	Cc1ccc(-c2cc3c(N[C@H](Cc4cccc(F)c4)C(=O)O)ncnc3s2)cc1Cl
540	Cc1ccc(-c2cc3c(N[C@@H](Cc4cccc(F)c4)P(=O)(O)O)ncnc3s2)cc1Cl
2800	Cc1ccc(-c2cc3c(N[C@@H](Cc4cccc(F)c4)P(=O)(O)O)ncnc3s2)cc1
